According to ChEMBL document CHEMBL5696441 (Nat Chem Biol, 2011):
pIC50: −log10 of the molar value.

How the values were obtained:
[1] = biological target: Serine/threonine-protein kinase RIO3 (Homo sapiens) (UniProt O14730); assay: Inhibition of RIOK3 (unknown origin) assessed as remaining activity at 1 uM by Kinome scan method relative to control
[2] = Anti-inflammatory activity against human derived medium respond PBMC cells assessed as inhibition in stimulated IP-10 chemokine release incubated for 2 hrs in the presence of LPS/SEB/aCD28 by Luminex based sandwich immunoassay; assay type: functional, cell-based
[3] = biological target: Serine/threonine-protein kinase Nek7 (Homo sapiens) (UniProt Q8TDX7); assay: Inhibition of NEK7 (unknown origin) assessed as remaining activity at 1 uM by Kinome scan method relative to control
Chain of Serine/threonine-protein kinase Nek7 (Homo sapiens) (Q8TDX7 whole entry, looked up): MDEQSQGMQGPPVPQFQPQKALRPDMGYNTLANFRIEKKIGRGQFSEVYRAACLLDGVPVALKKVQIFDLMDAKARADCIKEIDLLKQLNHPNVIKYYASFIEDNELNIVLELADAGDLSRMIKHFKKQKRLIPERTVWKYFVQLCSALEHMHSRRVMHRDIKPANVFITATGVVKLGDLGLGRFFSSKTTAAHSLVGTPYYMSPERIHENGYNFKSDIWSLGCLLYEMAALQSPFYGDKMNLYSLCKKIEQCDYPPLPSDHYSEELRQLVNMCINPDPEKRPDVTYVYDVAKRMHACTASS

[4] = biological target: Ephrin type-A receptor 6 (Homo sapiens) (UniProt Q9UF33); assay: Inhibition of EPHA6 (unknown origin) assessed as remaining activity at 1 uM by Kinome scan method relative to control
[5] = biological target: Ephrin type-B receptor 1 (Homo sapiens) (UniProt P54762); assay: Inhibition of EPHB1 (unknown origin) assessed as remaining activity at 1 uM by Kinome scan method relative to control
[6] = biological target: Rho-associated protein kinase 1 (Homo sapiens) (UniProt Q13464); assay: Inhibition of ROCK1 (unknown origin) assessed as remaining activity at 1 uM by Kinome scan method relative to control
[7] = biological target: Casein kinase II subunit alpha' (Homo sapiens) (UniProt P19784); assay: Inhibition of human CK2alpha2 assessed as residual activity at 1 uM using casein as substrate in presence of 33P-ATP by ProQinase assay relative to control
Chain of Casein kinase II subunit alpha' (Homo sapiens) (P19784 whole entry, looked up): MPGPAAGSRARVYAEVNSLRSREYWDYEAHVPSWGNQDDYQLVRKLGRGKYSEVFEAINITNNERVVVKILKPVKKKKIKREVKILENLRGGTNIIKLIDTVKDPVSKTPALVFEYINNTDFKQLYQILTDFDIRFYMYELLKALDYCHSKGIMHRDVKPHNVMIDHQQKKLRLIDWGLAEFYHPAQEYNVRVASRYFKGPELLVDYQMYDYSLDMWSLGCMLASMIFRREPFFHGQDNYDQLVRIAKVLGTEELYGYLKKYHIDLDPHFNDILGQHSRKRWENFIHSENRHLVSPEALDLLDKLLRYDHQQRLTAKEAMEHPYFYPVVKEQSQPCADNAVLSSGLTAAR

[8] = biological target: Serine/threonine-protein kinase SBK1 (Homo sapiens) (UniProt Q52WX2); assay: Inhibition of SBK1 (unknown origin) assessed as remaining activity at 1 uM by Kinome scan method relative to control
Chain of Serine/threonine-protein kinase SBK1 (Homo sapiens) (Q52WX2 whole entry): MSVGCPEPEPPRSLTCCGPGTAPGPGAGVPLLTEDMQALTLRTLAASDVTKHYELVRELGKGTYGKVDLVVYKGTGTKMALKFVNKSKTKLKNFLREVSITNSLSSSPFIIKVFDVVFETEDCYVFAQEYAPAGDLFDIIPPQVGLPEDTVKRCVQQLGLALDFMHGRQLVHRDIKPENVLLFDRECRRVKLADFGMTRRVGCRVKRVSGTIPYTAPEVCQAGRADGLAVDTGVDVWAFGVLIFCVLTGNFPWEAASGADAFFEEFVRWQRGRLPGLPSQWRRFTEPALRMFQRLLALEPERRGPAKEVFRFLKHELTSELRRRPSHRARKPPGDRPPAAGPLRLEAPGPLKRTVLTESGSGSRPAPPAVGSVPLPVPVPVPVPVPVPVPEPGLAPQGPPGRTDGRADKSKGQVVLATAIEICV

[9] = Anti-inflammatory activity against human derived high respond PBMC cells assessed as inhibition in stimulated IL-4 cytokine release incubated for 2 hrs in the presence of LPS/SEB/aCD28 by Luminex based sandwich immunoassay; assay type: functional, cell-based
[10] = biological target: Protein kinase C theta type (Homo sapiens) (UniProt Q04759); assay: Inhibition of PRKCQ (unknown origin) assessed as remaining activity at 1 uM by Kinome scan method relative to control
[11] = biological target: T1, Tyrosine-protein kinase ITK/TSK (Homo sapiens) (UniProt Q08881); assay: Inhibition of human ITK assessed as residual activity at 1 uM using polyEY as substrate in presence of 33P-ATP by ProQinase assay relative to control
T1 sequence (whole entry): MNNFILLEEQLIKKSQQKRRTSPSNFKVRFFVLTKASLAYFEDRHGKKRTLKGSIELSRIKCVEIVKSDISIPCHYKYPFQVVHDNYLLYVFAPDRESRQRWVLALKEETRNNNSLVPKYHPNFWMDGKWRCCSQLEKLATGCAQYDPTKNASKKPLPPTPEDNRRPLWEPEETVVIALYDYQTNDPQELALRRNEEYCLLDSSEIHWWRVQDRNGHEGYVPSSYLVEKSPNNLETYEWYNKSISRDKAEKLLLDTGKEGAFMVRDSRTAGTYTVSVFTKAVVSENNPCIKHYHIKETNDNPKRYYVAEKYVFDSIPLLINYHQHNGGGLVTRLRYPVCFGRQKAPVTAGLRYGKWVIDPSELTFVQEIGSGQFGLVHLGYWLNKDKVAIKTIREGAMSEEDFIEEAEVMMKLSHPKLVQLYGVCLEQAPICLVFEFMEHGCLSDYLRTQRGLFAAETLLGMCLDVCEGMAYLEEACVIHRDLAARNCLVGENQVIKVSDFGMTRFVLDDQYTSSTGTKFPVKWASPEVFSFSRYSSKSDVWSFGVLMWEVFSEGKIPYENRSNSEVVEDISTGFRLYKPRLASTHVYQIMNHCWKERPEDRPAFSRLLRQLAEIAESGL

[12] = biological target: Calcium/calmodulin-dependent protein kinase type 1D (Homo sapiens) (UniProt Q8IU85); assay: Inhibition of human CAMK1D assessed as residual activity at 1 uM using RBER-CHKtide as substrate in presence of 33P-ATP by ProQinase assay relative to control
Chain of Calcium/calmodulin-dependent protein kinase type 1D (Homo sapiens) (Q8IU85 whole entry, looked up): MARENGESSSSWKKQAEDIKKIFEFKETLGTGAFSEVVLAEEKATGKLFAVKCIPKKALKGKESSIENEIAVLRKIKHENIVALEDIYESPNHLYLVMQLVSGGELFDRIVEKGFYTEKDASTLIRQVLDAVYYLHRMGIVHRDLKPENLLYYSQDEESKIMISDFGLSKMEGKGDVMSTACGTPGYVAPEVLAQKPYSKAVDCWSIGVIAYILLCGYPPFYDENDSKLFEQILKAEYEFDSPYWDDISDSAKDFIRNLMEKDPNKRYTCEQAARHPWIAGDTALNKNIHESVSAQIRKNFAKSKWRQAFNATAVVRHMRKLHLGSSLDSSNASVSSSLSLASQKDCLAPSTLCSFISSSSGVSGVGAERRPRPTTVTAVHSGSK

[13] = system: Mast/stem cell growth factor receptor Kit (Homo sapiens), P10721 [V559D,V654A]; assay: Inhibition of KIT V559D/V654A mutant (unknown origin) assessed as remaining activity at 1 uM by Kinome scan method relative to control
[14] = biological target: Serine/threonine-protein kinase pim-2 (Homo sapiens) (UniProt Q9P1W9); assay: Inhibition of human PIM2 assessed as residual activity at 1 uM using RBER-GSK3(14-27) as substrate in presence of 33P-ATP by ProQinase assay relative to control
Chain of Serine/threonine-protein kinase pim-2 (Homo sapiens) (Q9P1W9 whole entry, looked up): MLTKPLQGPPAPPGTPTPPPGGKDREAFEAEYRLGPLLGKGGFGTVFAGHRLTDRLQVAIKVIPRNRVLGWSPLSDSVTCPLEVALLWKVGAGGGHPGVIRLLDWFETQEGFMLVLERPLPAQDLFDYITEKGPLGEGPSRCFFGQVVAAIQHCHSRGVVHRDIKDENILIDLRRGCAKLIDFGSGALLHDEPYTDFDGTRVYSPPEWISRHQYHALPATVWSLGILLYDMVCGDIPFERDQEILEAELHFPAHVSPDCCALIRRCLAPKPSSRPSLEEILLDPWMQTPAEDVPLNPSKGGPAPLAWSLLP

[15] = biological target: Vascular endothelial growth factor receptor 3 (Homo sapiens) (UniProt P35916); assay: Inhibition of human VEGFR3 assessed as residual activity at 1 uM using polyEY as substrate in presence of 33P-ATP by ProQinase assay relative to control
[16] = biological target: Protein kinase C beta type (Homo sapiens) (UniProt P05771); assay: Inhibition of human PKCbeta1 assessed as residual activity at 1 uM using 3xChocktide-PKC(19-31) as substrate in presence of 33P-ATP by ProQinase assay relative to control
Chain of Protein kinase C beta type (Homo sapiens) (P05771 2-671 limits assumed): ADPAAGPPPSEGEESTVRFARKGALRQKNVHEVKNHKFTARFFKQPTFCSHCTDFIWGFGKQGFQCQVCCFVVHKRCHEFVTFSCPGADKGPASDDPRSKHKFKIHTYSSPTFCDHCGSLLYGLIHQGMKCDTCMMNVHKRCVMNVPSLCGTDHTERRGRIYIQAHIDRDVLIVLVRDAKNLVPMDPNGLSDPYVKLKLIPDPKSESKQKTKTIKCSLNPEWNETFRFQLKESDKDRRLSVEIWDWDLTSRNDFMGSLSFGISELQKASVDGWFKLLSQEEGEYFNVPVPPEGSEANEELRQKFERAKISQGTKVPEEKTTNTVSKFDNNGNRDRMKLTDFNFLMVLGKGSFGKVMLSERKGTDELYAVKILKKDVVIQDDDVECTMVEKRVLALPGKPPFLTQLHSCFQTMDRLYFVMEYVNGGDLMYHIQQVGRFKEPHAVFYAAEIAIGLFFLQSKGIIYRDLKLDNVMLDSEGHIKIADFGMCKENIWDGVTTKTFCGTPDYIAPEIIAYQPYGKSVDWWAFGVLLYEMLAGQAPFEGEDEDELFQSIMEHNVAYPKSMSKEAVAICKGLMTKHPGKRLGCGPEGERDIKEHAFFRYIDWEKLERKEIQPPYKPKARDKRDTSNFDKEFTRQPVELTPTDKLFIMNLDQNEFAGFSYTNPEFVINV

[17] = biological target: 5'-AMP-activated protein kinase catalytic subunit alpha-1 (Homo sapiens) (UniProt Q13131); assay: Inhibition of AMPK-alpha1 (unknown origin) assessed as remaining activity at 1 uM by Kinome scan method relative to control
[18] = biological target: Serine/threonine-protein kinase PAK 4 (Homo sapiens) (UniProt O96013); assay: Inhibition of human PAK4 assessed as residual activity at 1 uM using bio-4xCHKT as substrate in presence of 33P-ATP by ProQinase assay relative to control
Chain of Serine/threonine-protein kinase PAK 4 (Homo sapiens) (O96013 whole entry, looked up): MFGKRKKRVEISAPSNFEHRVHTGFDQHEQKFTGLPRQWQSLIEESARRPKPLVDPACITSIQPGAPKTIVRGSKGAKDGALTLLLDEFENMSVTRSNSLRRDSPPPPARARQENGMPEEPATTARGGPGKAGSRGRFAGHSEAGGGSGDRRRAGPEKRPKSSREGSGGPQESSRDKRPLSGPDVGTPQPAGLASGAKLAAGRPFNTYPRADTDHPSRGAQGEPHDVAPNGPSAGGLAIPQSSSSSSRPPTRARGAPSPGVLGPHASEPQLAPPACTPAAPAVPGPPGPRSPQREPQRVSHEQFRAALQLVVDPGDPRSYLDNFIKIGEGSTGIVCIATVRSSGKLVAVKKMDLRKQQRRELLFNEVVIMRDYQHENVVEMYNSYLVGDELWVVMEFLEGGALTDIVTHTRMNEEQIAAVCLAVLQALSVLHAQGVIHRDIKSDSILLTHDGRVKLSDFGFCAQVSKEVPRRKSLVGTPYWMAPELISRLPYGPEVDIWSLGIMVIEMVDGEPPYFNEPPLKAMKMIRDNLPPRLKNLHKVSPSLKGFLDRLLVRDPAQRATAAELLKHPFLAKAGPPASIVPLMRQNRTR

[19] = biological target: Inhibitor of nuclear factor kappa-B kinase subunit beta (Homo sapiens) (UniProt O14920); assay: Inhibition of IKK-beta (unknown origin) assessed as remaining activity at 1 uM by Kinome scan method relative to control
Chain of Inhibitor of nuclear factor kappa-B kinase subunit beta (Homo sapiens) (O14920 whole entry): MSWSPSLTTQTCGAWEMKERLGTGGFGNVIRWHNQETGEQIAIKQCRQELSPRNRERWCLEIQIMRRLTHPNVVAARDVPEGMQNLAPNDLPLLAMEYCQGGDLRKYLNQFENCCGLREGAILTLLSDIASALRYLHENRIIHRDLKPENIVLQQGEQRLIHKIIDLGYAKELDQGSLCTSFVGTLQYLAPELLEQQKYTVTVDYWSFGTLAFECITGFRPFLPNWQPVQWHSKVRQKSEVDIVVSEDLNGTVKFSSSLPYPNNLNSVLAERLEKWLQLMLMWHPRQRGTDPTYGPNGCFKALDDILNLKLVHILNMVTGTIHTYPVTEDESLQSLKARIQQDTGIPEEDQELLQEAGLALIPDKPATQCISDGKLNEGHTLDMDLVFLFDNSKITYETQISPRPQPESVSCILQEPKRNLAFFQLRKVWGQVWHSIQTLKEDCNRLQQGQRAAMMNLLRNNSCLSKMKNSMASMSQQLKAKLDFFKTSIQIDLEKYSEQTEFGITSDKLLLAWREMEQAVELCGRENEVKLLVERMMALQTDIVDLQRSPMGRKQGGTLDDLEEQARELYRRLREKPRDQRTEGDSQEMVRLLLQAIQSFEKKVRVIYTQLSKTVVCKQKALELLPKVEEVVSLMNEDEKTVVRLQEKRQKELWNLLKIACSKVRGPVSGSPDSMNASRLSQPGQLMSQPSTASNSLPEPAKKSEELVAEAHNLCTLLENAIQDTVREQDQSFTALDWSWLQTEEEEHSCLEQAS

[20] = biological target: Protein-tyrosine kinase 6 (Homo sapiens) (UniProt Q13882); assay: Inhibition of human BRK assessed as residual activity at 1 uM using PolyEY as substrate in presence of 33P-ATP by ProQinase assay relative to control
[21] = biological target: Serine/threonine-protein kinase PLK1 (Homo sapiens) (UniProt P53350); assay: Inhibition of human PLK1 assessed as residual activity at 1 uM using RBER-CHKtide as substrate in presence of 33P-ATP by ProQinase assay relative to control
[22] = biological target: Eukaryotic translation initiation factor 2-alpha kinase 3 (Homo sapiens) (UniProt Q9NZJ5); assay: Inhibition of human EIF2AK3 assessed as residual activity at 1 uM using casein as substrate in presence of 33P-ATP by ProQinase assay relative to control
Chain of Eukaryotic translation initiation factor 2-alpha kinase 3 (Homo sapiens) (Q9NZJ5 whole entry): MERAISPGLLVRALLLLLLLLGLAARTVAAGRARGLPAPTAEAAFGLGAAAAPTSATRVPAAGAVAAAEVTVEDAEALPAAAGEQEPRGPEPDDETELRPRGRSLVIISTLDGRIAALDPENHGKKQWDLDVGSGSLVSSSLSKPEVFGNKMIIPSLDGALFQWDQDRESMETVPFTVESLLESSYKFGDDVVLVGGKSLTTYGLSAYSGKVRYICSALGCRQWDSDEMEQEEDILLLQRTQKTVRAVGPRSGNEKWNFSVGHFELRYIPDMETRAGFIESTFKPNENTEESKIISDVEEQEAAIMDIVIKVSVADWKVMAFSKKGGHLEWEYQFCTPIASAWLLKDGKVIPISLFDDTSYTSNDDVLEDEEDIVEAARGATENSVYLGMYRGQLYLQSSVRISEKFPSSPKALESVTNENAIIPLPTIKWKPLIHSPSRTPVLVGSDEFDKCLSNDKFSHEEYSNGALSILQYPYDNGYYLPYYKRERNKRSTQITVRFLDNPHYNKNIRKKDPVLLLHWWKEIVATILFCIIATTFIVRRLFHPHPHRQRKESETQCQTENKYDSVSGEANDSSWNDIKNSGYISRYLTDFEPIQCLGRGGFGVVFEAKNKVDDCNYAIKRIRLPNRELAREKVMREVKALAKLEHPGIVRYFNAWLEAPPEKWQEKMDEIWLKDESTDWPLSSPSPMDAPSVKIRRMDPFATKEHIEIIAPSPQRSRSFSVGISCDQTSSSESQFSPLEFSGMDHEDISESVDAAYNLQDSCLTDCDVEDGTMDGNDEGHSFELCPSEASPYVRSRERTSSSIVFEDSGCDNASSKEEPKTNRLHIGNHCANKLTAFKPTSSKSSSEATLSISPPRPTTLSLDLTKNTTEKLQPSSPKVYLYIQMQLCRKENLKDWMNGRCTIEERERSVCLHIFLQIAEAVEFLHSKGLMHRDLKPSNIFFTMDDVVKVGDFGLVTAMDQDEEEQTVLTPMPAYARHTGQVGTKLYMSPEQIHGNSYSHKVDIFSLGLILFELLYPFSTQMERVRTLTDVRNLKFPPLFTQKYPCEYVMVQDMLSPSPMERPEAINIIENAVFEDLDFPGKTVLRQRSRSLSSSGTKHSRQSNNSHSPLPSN

[23] = biological target: Serine/threonine-protein kinase 3 (Homo sapiens) (UniProt Q13188); assay: Inhibition of MST2 (unknown origin) assessed as remaining activity at 1 uM by Kinome scan method relative to control

With O=C1c2ccc(Nc3ccc(F)cc3F)cc2CCc2ccc(OC[C@H](O)CO)cc21 [Skepinone-L] the Activity [1] was 99%, the pIC50 [2] was 5.23 and the Activity [3] was 96%. It also gave an Activity [4] of 96%, an Activity [5] of 98% and an Activity [6] of 100%. For the same compound, the Activity [7] was 87%, the Activity [8] was 100% and the IC50 [9] was “Not Active”. For the same compound, the Activity [10] was 83%, the Activity [11] was 97% and the Activity [12] was 106%. For the same compound, the Activity [13] was 100%, the Activity [14] was 97% and the Activity [15] was 100%. It also gave an Activity [16] of 103%, an Activity [17] of 98% and an Activity [18] of 88%. The Activity [19] was 100%, the Activity [20] was 84% and the Activity [21] was 97%. For the same compound, the Activity [22] was 95% and the Activity [23] was 100%.
